Columns and labels:
Assay type in all cases: biochemical
mouse MMP-2 = target: T1, mouse MMP-2 (Mus musculus, UniProt P33434); assay: In vitro mouse MMP-2 inhibition test
T1 construct: purchased R&D Systems 924-MP
Excerpt: (§1) The MMP-mediated amidolytic cleavage of a suitable peptide substrate leads to an increase in fluorescent light here too. The signal intensity of the fluorescent light is directly proportional to the enzyme activity. The active concentration of a test compound at which half the enzyme is inhibited (50% signal intensity of the fluorescent light) is reported as the IC50 value.
(§2) Recombinant mouse MMP-2 (from R&D Systems, 924-MP) is chemically activated in accordance with the manufacturer's instructions using APMA. 1 μl of the test compound to be analysed (as a solution in DMSO, suitable concentrations, for example, 1 nM to 30 μM) is pipetted into 24 μl of activated enzyme (final concentration, for example, 0.1 nM) in reaction buffer (50 mM Tris/HCl pH 7.5, 10 mM CaCl2, 150 mM NaCl, 0.05% Brij®-35) in a white 384-hole microtiter plate (MTP). The enzymatic reaction is started by adding the intramolecularly quenched Mca-Pro-Leu-Gly-Leu-Dpa(Dnp)-Ala-Arg-NH2 substrate (final concentration, for example, 10 μM; R&D Systems, ES-001), so as to result in a total test volume of 50 The course of the MMP-2 reaction is measured by measuring the fluorescence intensity (excitation 320 nm, emission 410 nm) over a suitable period of time (for example over 120 min at a temperature of 32° C.).

mouse MMP-8 = target: T2, mouse MMP-8 (Mus musculus, UniProt O70138); assay: In vitro mouse MMP-8 inhibition test
T2 construct: purchased R&D Systems 2904-MP
T2 sequence (O70138 101-465): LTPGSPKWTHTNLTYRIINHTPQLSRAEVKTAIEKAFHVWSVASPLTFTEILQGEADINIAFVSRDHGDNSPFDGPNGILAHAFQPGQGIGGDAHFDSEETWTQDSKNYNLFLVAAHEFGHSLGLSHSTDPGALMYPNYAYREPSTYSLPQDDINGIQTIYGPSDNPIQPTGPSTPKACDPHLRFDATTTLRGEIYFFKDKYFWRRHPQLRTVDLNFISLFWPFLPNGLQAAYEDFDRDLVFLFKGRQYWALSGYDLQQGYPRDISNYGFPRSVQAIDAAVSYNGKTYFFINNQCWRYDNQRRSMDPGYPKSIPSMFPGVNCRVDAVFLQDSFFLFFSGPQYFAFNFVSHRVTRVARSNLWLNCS
Excerpt: as §1
(§3) Recombinant mouse MMP-8 (from R&D Systems, 2904-MP) is chemically activated in accordance with the manufacturer's instructions using APMA. 1 μl of the test compound to be analysed (as a solution in DMSO, suitable concentrations, for example, 1 nM to 30 μM) is pipetted into 24 μl of activated enzyme (final concentration, for example, 2 nM) in reaction buffer (50 mM Tris/HCl pH 7.5, 10 mM CaCl2, 150 mM NaCl, 0.05% Brij®-35) in a white 384-hole microtiter plate (MTP). The enzymatic reaction is started by adding the intramolecularly quenched Mca-Lys-Pro-Leu-Gly-Leu-Dpa(Dnp)-Ala-Arg-NH2 substrate (final concentration, for example, 5 μM; R&D Systems, ES-010), so as to result in a total test volume of 50 μl. The course of the MMP-8 reaction is measured by measuring the fluorescence intensity (excitation 320 nm, emission 410 nm) over a suitable period of time (for example over 120 min at a temperature of 32° C.).

mouse MMP-12 = target: T3, mouse MMP-12 (Mus musculus, UniProt P34960); assay: In vitro mouse MMP-12 inhibition test (standard or high-sensitivity)
T3 construct: purchased R&D Systems 3467-MP
T3 sequence (P34960 110-473): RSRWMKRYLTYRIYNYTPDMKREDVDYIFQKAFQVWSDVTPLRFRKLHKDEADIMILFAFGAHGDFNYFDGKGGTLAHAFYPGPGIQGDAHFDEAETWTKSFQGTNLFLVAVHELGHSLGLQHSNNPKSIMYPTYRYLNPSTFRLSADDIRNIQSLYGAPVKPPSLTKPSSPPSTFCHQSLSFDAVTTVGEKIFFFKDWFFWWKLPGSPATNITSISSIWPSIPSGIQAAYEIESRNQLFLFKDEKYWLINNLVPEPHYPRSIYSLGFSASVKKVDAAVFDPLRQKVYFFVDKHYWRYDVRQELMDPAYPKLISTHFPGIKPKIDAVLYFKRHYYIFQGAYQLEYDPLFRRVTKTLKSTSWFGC
Excerpt: as §1
Recombinant mouse MMP-12 (from R&D Systems, 3467-MP) is autocatalytically activated in accordance with the manufacturer's instructions. 1 μl of the test compound to be analysed (as a solution in DMSO, suitable concentrations, for example, 1 nM to 30 μM) is pipetted into 24 μl of activated enzyme (final concentration, for example, 1 nM) in reaction buffer (50 mM Tris/HCl pH 7.5, 10 mM CaCl2, 150 mM NaCl, 0.05% Brij®-35) in a white 384-hole microtiter plate (MTP). The enzymatic reaction is started by adding the intramolecularly quenched Mca-Lys-Pro-Leu-Gly-Leu-Dpa(Dnp)-Ala-Arg-NH2 substrate (final concentration, for example, 5 μM; R&D Systems, ES-010), so as to result in a total test volume of 50 The course of the MMP-12 reaction is measured by measuring the fluorescence intensity (excitation 320 nm, emission 410 nm) over a suitable period of time (for example over 120 min at a temperature of 32° C.).
In this case, an enzyme concentration ten times lower is used (final concentration, for example, 0.1 nM) in order to achieve an elevated test sensitivity. The incubation period chosen for the test is correspondingly longer (for example 16 hours).

mouse MMP-9 = target: T4, mouse MMP-9 (Mus musculus, UniProt P41245); assay: In vitro mouse MMP-9 inhibition test
T4 construct: purchased R&D Systems 909-MP
T4 sequence (P41245 108-730): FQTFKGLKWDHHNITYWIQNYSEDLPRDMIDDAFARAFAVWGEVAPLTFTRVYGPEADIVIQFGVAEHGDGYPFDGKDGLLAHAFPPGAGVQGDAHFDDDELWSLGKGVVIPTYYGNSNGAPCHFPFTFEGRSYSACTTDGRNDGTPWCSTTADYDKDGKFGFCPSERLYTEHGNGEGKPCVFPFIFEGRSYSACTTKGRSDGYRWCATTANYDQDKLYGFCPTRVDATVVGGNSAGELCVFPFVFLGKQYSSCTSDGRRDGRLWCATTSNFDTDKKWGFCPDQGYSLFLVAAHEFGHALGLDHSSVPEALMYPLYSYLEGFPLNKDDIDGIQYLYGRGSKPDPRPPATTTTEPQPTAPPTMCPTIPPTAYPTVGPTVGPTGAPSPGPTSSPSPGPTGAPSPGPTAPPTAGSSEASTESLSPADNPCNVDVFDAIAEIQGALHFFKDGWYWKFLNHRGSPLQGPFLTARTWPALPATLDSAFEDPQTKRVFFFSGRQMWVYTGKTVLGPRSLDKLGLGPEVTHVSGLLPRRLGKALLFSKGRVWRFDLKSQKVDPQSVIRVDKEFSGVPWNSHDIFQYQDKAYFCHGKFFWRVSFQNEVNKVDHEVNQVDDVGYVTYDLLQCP
Excerpt: as §1
as §2, with “mouse MMP-9” for “mouse MMP-2”, “Systems, 909-MP)” for “Systems, 924-MP)”, “example, 5” for “example, 10”, “the MMP-9” for “the MMP-2”

mouse MMP-7 = target: T5, mouse MMP-7 (Mus musculus, UniProt Q10738); assay: In vitro mouse MMP-7 inhibition test
T5 construct: purchased R&D Systems 2967-MP
T5 sequence (Q10738 95-264): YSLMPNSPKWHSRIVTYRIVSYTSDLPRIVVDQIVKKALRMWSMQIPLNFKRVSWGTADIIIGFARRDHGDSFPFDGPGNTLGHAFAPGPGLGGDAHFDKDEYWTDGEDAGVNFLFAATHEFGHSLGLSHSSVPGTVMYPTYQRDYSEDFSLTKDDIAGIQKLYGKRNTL
Excerpt: as §1
as §3, with “mouse MMP-7” for “mouse MMP-8”, “Systems, 2967-MP)” for “Systems, 2904-MP)”, “example, 0.5” for “example, 2”, “the MMP-7” for “the MMP-8”

T1 sequence (P33434 110-662): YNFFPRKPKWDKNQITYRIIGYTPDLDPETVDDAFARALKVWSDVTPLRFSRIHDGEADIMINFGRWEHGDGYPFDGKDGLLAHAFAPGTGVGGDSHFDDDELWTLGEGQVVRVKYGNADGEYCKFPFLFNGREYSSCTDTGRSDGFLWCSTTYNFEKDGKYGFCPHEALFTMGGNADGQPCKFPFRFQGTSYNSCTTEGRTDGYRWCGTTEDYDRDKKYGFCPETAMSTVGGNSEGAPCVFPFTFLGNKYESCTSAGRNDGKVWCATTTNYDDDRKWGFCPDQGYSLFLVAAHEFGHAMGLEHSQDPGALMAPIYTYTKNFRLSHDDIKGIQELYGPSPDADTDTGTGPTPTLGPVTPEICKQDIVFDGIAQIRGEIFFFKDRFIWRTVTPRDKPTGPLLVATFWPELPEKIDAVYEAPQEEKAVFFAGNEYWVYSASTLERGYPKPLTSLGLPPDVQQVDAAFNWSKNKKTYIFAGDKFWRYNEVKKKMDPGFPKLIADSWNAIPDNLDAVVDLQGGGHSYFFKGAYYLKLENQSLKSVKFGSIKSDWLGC

| Structure (SMILES) | IC50 (mouse MMP-2) [nM] | IC50 (mouse MMP-8) [nM] | IC50 (mouse MMP-12) [nM] | IC50 (mouse MMP-9) [nM] | IC50 (mouse MMP-7) [nM] |
| --- | --- | --- | --- | --- | --- |
| O=C(O)[C@H]1[C@H](Cn2nnc3ccc(C(F)(F)F)cc3c2=O)CC[C@@H]1C(=O)c1ccc(SCc2ccc(Cl)c(Cl)c2)cc1 (racemic) [Example 79, (+/−)-(1RS,2RS,5SR)-2-{4-[(3,4-Dichlorobenzyl)sulphanyl]benzoyl}-5-{[4-oxo-6-(trifluoromethyl)-1,2,3-benzotriazin-3(4H)-yl]methyl}cyclopentanecarboxylic acid] | 5900 | 760 | 35 | 2100 | 1100 |
| COC(=O)Nc1cccc(COc2ccc(C(=O)[C@@H]3CC[C@H](Cn4nnc5ccc(C(F)(F)F)cc5c4=O)[C@H]3C(=O)O)cc2)c1 (stereo in doubt) [Example 31, (+)-(1RS,2RS,5SR)-2-[4-({3-[(Methoxycarbonyl)amino]benzyl}oxy)benzoyl]-5-{[4-oxo-6-(trifluoromethyl)-1,2,3-benzotriazin-3(4H)-yl]methyl}cyclopentanecarboxylic acid] | 990 | 89 | 6.4 | 4300 | 44 |
| O=C(O)[C@@H]1[C@@H](Cn2nnc3ccc(C(F)(F)F)cc3c2=O)CC[C@H]1C(=O)c1ccc(OCC2CCCCC2)cc1 (single isomer, unassigned) [Example 41, (+)-(1RS,2RS,5SR)-2-[4-(Cyclohexylmethoxy)benzoyl]-5-{[4-oxo-6-(trifluoromethyl)-1,2,3-benzotriazin-3(4H)-yl]methyl}cyclopentanecarboxylic acid] | 180 | 16 | 0.71 | 220 | 27 |
| O=C(O)[C@H]1[C@H](Cn2nnc3ccccc3c2=O)CC[C@@H]1C(=O)c1ccc(OCc2ccc(Cl)c(Cl)c2)cc1 (racemic) [Example 3, (+/−)-(1RS,2RS,5SR)-2-{4-[(3,4-Dichlorobenzyl)oxy]benzoyl}-5-[(4-oxo-1,2,3-benzotriazin-3(4H)-yl)methyl]cyclopentanecarboxylic acid] | 290 | 810 | 7 | 2600 | 430 |
| O=C(O)[C@@H]1[C@@H](Cn2nnc3ccc(C(F)(F)F)cc3c2=O)CC[C@H]1C(=O)c1ccc(OCc2cccc(Cl)c2)cc1 (single isomer, unassigned) [Example 23, (+)-(1RS,2RS,5SR)-2-{4-[(3-Chlorobenzyl)oxy]benzoyl}-5-{[4-oxo-6-(trifluoromethyl)-1,2,3-benzotriazin-3(4H)-yl]methyl}cyclopentanecarboxylic acid] | 2400 | 300 | 6.5 | 1700 | 69 |
| O=C(O)[C@H]1[C@H](Cn2nnc3ccccc3c2=O)CC[C@@H]1C(=O)c1ccc(OCc2cccc(Cl)c2)cc1 (racemic) [Example 2, (+/−)-(1RS,2RS,5SR)-2-{4-[(3-Chlorobenzyl)oxy]benzoyl}-5-[(4-oxo-1,2,3-benzotriazin-3(4H)-yl)methyl]cyclopentanecarboxylic acid] | 400 | 1400 | 4.1 | 1100 | 140 |
| O=C(O)[C@H]1[C@H](Cn2nnc3ccc(C(F)(F)F)cc3c2=O)CC[C@@H]1C(=O)c1ccc(OCCCC2CCCCC2)cc1 (racemic) [Example 56, (+/−)-(1RS,2RS,5SR)-2-{4-(3-Cyclohexylpropoxy)benzoyl}-5-{[4-oxo-6-(trifluoromethyl)-1,2,3-benzotriazin-3(4H)-yl]methyl}cyclopentanecarboxylic acid] | 5000 | 1100 | 21 | > 40000 | 990 |

Continued, values first:

| IC50 (mouse MMP-2) [nM] | IC50 (mouse MMP-8) [nM] | IC50 (mouse MMP-12) [nM] | IC50 (mouse MMP-9) [nM] | IC50 (mouse MMP-7) [nM] | Structure (SMILES) |
| --- | --- | --- | --- | --- | --- |
| 370 | 91 | 4.9 | 770 | 100 | CCCCCOc1ccc(C(=O)[C@H]2CC[C@@H](Cn3nnc4ccc(C)cc4c3=O)[C@@H]2C(=O)O)cc1 (racemic) [Example 123, (+/−)-(1RS,2SR,5RS)-2-[(6-Methyl-4-oxo-1,2,3-benzotriazin-3(4H)-yl)methyl]-5-[4-(pentyloxy)benzoyl]cyclopentanecarboxylic acid] |
| 130 | 13 | 0.62 | 230 | 16 | Cc1ccc2nnn(C[C@H]3CC[C@@H](C(=O)c4ccc(OCC5CCCCC5)cc4)[C@@H]3C(=O)O)c(=O)c2c1 (single isomer, unassigned) [Example 117, (+)-(1RS,2RS,5SR)-2-[4-(Cyclohexylmethoxy)benzoyl]-5-[(6-methyl-4-oxo-1,2,3-benzotriazin-3(4H)-yl)methyl]cyclopentanecarboxylic acid] |
| 890 | 250 | 1.7 | 1100 | 150 | Cc1ccc2nnn(C[C@@H]3CC[C@H](C(=O)c4ccc(OCc5cccc(C(F)(F)F)c5)cc4)[C@H]3C(=O)O)c(=O)c2c1 (racemic) [Example 100, (+/−)-(1RS,2SR,5RS)-2-[(6-Methyl-4-oxo-1,2,3-benzotriazin-3(4H)-yl)methyl]-5-(4-{[3-(trifluoromethyl)benzyl]oxy}benzoyl)cyclopentanecarboxylic acid] |

Reference: patent US20170022171A1, “2,5-DISUBSTITUTED CYCLOPENTANECARBOXYLIC ACIDS AND THEIR USE” (Bayer Pharma Aktiengesellschaft, priority 2014, published 2017)
